Laboratory results reported in PubChem BioAssay AID1259407 (Chemical Carcinogenesis Research Information System (CCRIS), 2018).
The source made the active and inactive calls. The rule behind the calls is not given here.

Tested on: CCRIS mutagenicity, Ames/micronucleus/aberration tests
Assay: CCRIS mutagenicity studies

Measured: mutagenic call

C#C[C@]1(O)CC[C@H]2[C@@H]3CCC4=CC(=O)CC[C@@H]4[C@H]3CC[C@@]21C
inactive: End Point: IN VITRO CHROMOSOMAL ABERRATIONS, Test System: HUMAN LYMPHOCYTES, Metabolic Activation: NONE inactive; negative | End Point: IN VITRO CHROMOSOMAL ABERRATIONS, Test System: HUMAN LYMPHOCYTES, Metabolic Activation: RAT, LIVER, S-9, PHENOBARBITONE inactive; negative | End Point: IN VIVO MICRONUCLEUS, Test System: HEPATOCYTES, Species: RAT, Strain/Sex: SPRAGUE-DAWLEY/FEMALE, Route: INTRAGASTRIC (GAVAGE) inactive; negative (nonstatistically significant increase) | Test System: AMES SALMONELLA TYPHIMURIUM, Strain/Indicator: TA98, Metabolic Activation: NONE inactive; negative | Test System: AMES SALMONELLA TYPHIMURIUM, Strain/Indicator: TA98, Metabolic Activation: NONE, Method: PREINCUBATION inactive; negative | Test System: AMES SALMONELLA TYPHIMURIUM, Strain/Indicator: TA98, Metabolic Activation: NONE, Method: STANDARD PLATE inactive; negative | Test System: AMES SALMONELLA TYPHIMURIUM, Strain/Indicator: TA98, Metabolic Activation: RAT, LIVER, S-9, AROCLOR 1254, Method: PREINCUBATION inactive; negative | Test System: AMES SALMONELLA TYPHIMURIUM, Strain/Indicator: TA98, Metabolic Activation: RAT, LIVER, S-9, AROCLOR 1254, Method: STANDARD PLATE inactive; negative | Test System: AMES SALMONELLA TYPHIMURIUM, Strain/Indicator: TA98, Metabolic Activation: S-9 inactive; negative | Test System: AMES SALMONELLA TYPHIMURIUM, Strain/Indicator: TA100, Metabolic Activation: NONE inactive; negative | Test System: AMES SALMONELLA TYPHIMURIUM, Strain/Indicator: TA100, Metabolic Activation: NONE, Method: PREINCUBATION inactive; negative | Test System: AMES SALMONELLA TYPHIMURIUM, Strain/Indicator: TA100, Metabolic Activation: NONE, Method: STANDARD PLATE inactive; negative | Test System: AMES SALMONELLA TYPHIMURIUM, Strain/Indicator: TA100, Metabolic Activation: RAT, LIVER, S-9, AROCLOR 1254, Method: PREINCUBATION inactive; negative | Test System: AMES SALMONELLA TYPHIMURIUM, Strain/Indicator: TA100, Metabolic Activation: RAT, LIVER, S-9, AROCLOR 1254, Method: STANDARD PLATE inactive; negative | Test System: AMES SALMONELLA TYPHIMURIUM, Strain/Indicator: TA100, Metabolic Activation: S-9 inactive; negative | Test System: AMES SALMONELLA TYPHIMURIUM, Strain/Indicator: TA1535, Metabolic Activation: NONE inactive; negative | Test System: AMES SALMONELLA TYPHIMURIUM, Strain/Indicator: TA1535, Metabolic Activation: NONE, Method: PREINCUBATION inactive; negative | Test System: AMES SALMONELLA TYPHIMURIUM, Strain/Indicator: TA1535, Metabolic Activation: NONE, Method: STANDARD PLATE inactive; negative | Test System: AMES SALMONELLA TYPHIMURIUM, Strain/Indicator: TA1535, Metabolic Activation: RAT, LIVER, S-9, AROCLOR 1254, Method: PREINCUBATION inactive; negative | Test System: AMES SALMONELLA TYPHIMURIUM, Strain/Indicator: TA1535, Metabolic Activation: RAT, LIVER, S-9, AROCLOR 1254, Method: STANDARD PLATE inactive; negative | Test System: AMES SALMONELLA TYPHIMURIUM, Strain/Indicator: TA1535, Metabolic Activation: S-9 inactive; negative | Test System: AMES SALMONELLA TYPHIMURIUM, Strain/Indicator: TA1537, Metabolic Activation: NONE inactive; negative | Test System: AMES SALMONELLA TYPHIMURIUM, Strain/Indicator: TA1537, Metabolic Activation: NONE, Method: PREINCUBATION inactive; negative | Test System: AMES SALMONELLA TYPHIMURIUM, Strain/Indicator: TA1537, Metabolic Activation: NONE, Method: STANDARD PLATE inactive; negative | Test System: AMES SALMONELLA TYPHIMURIUM, Strain/Indicator: TA1537, Metabolic Activation: RAT, LIVER, S-9, AROCLOR 1254, Method: PREINCUBATION inactive; negative | Test System: AMES SALMONELLA TYPHIMURIUM, Strain/Indicator: TA1537, Metabolic Activation: RAT, LIVER, S-9, AROCLOR 1254, Method: STANDARD PLATE inactive; negative | Test System: AMES SALMONELLA TYPHIMURIUM, Strain/Indicator: TA1537, Metabolic Activation: S-9 inactive; negative | Test System: AMES SALMONELLA TYPHIMURIUM, Strain/Indicator: TA1538, Metabolic Activation: NONE, Method: PREINCUBATION inactive; negative | Test System: AMES SALMONELLA TYPHIMURIUM, Strain/Indicator: TA1538, Metabolic Activation: NONE, Method: STANDARD PLATE inactive; negative | Test System: AMES SALMONELLA TYPHIMURIUM, Strain/Indicator: TA1538, Metabolic Activation: RAT, LIVER, S-9, AROCLOR 1254, Method: PREINCUBATION inactive; negative | Test System: AMES SALMONELLA TYPHIMURIUM, Strain/Indicator: TA1538, Metabolic Activation: RAT, LIVER, S-9, AROCLOR 1254, Method: STANDARD PLATE inactive; negative | Test System: E. COLI, Strain/Indicator: WP2 UVRA, Metabolic Activation: NONE inactive; negative | Test System: E. COLI, Strain/Indicator: WP2 UVRA, Metabolic Activation: S-9 inactive; negative

C/C(=C(\CCOC(=O)c1ccccc1)SC(=O)c1ccccc1)N(C=O)Cc1cnc(C)nc1N
inactive: Test System: AMES SALMONELLA TYPHIMURIUM, Strain/Indicator: TA97, Metabolic Activation: NONE, Method: PREINCUBATION inactive; negative | Test System: AMES SALMONELLA TYPHIMURIUM, Strain/Indicator: TA97, Metabolic Activation: RAT, LIVER, S-9, AROCLOR 1254, Method: PREINCUBATION inactive; negative | Test System: AMES SALMONELLA TYPHIMURIUM, Strain/Indicator: TA102, Metabolic Activation: NONE, Method: PREINCUBATION inactive; negative | Test System: AMES SALMONELLA TYPHIMURIUM, Strain/Indicator: TA102, Metabolic Activation: RAT, LIVER, S-9, AROCLOR 1254, Method: PREINCUBATION inactive; negative
